Reference: the Deep4Chem optical property database

Assay: solvent given as SMILES

SMILES: CCCCC(CC)CN1C(=O)c2cc(Oc3ccc(C(C)(C)C)cc3)c3c4c(Oc5ccc(OC)cc5)cc5c6c(cc(Oc7ccc(OC)cc7)c(c7c(Oc8ccc(C(C)(C)C)cc8)cc(c2c37)C1=O)c64)C(=O)N(c1c(C(C)C)cccc1C(C)C)C5=O (stereo not drawn)
- emission maximum (in Cc1ccccc1): 608 nm

SMILES: Oc1ccc(/N=C/c2ccccc2Oc2ccccc2)cc1
- emission maximum (in C1CCCCC1): 410 nm
- emission maximum (in C1COCCO1): 414 nm
- emission maximum (in CC#N): 424 nm
- emission maximum (in CC(C)=O): 423 nm
- emission maximum (in CC(C)CO): 410 nm
- emission maximum (in CCCCC): 410 nm
- emission maximum (in CCCCCC): 428 nm
- emission maximum (in CCCCCCCCO): 420 nm
- emission maximum (in CCCCCCCO): 413 nm
- emission maximum (in CCCCCCO): 413 nm
- emission maximum (in CCCCO): 419 nm
- emission maximum (in CCCCOC(C)=O): 410 nm
- emission maximum (in CCCO): 415 nm
- emission maximum (in CCO): 415 nm
- emission maximum (in CCOC(C)=O): 412 nm
- emission maximum (in CCOCC): 427 nm
- emission maximum (in CN(C)C=O): 423 nm
- emission maximum (in CO): 415 nm
- emission maximum (in CS(C)=O): 418 nm
- emission maximum (in Cc1ccccc1): 410 nm
- emission maximum (in Cc1ccccc1C): 414 nm
- emission maximum (in ClC(Cl)Cl): 415 nm
- emission maximum (in ClCCl): 414 nm
- emission maximum (in OCCO): 405 nm
- emission maximum (in c1ccccc1): 414 nm

SMILES: Cc1nc2c(ccc3ccc(O)cc32)oc1=O
- emission maximum (in c1ccccc1): 461 nm

SMILES: Cc1cccc(C2=Cc3c4ccccc4cc[n+]3[B-](F)(F)O2)c1
- emission maximum (in ClC(Cl)Cl): 464.8 nm

SMILES: c1ccc(-c2nc(-c3ccccc3)nc(-c3ccc(-n4c5ccc(-n6c7ccccc7c7ccccc76)cc5c5ccc6c(c7ccccc7n6-c6ccccc6)c54)cc3)n2)cc1
- emission maximum (in Cc1ccccc1): 463.87 nm

SMILES: Cc1c(C(=O)c2ccc(C(F)(F)F)cc2)c2ccc3cccc4c5cccc6ccc1c(c65)c2c34
- emission maximum (in ClCCl): 545 nm

SMILES: Cc1cc2nc3c(=O)n(C)c(=O)nc-3n(C)c2cc1C
- emission maximum (in CC#N): 531 nm

SMILES: N#Cc1ccc(-n2c(-c3ccc(-c4ccc(-c5nc6c7ccccc7c7ccccc7c6n5-c5ccc(C#N)c6ccccc56)cc4)cc3)nc3c4ccccc4c4ccccc4c32)c2ccccc12
- emission maximum (in ClCCl): 430 nm

SMILES: CSc1ccc(/C=C/c2cnc3ccccc3n2)cc1
- emission maximum (in C1CCOC1): 467 nm
- emission maximum (in CC#N): 499 nm
- emission maximum (in CCCCCCC): 426 nm
- emission maximum (in CS(C)=O): 513 nm
- emission maximum (in ClCCl): 475 nm

SMILES: CCN(CC)c1ccc2cc(-c3nc4c5cccc6ccc7cccc(c7c65)c4n3-c3ccc(C(C)(C)C)cc3)c(=O)oc2c1
- emission maximum (in ClCCl): 519 nm

SMILES: Fc1nc(F)c(F)c(/C=C2/C(c3c(F)c(F)nc(F)c3F)=Cc3ccccc32)c1F
- emission maximum (in CC#N): 395 nm

SMILES: CC1(C)c2ccccc2N(c2ccccc2)c2ccc(-c3ccc(S(=O)(=O)c4ccc(-c5ccc6c(c5)C(C)(C)c5ccccc5N6c5ccccc5)cc4)cc3)cc21
- emission maximum (in Cc1ccccc1): 419.03 nm
- emission maximum (in O=P(c1ccccc1)(c1ccccc1)c1ccccc1Oc1ccccc1P(=O)(c1ccccc1)c1ccccc1): 439 nm

SMILES: COC(=O)c1ccc(-c2ccc(-c3nnc(-c4ccc(-c5nnc(-c6ccc(-c7ccc(C(=O)OC)cc7)s6)o5)cc4)o3)s2)cc1
- emission maximum (in C1COCCO1): 400 nm
- emission maximum (in CC#N): 400 nm
- emission maximum (in CC(=O)N(C)C): 417 nm
- emission maximum (in CCCCCCCCCCO): 408 nm
- emission maximum (in CCCCCCCCO): 399 nm
- emission maximum (in CCCCCCO): 389 nm
- emission maximum (in CCCCO): 394 nm
- emission maximum (in CCO): 400 nm
- emission maximum (in CS(C)=O): 420 nm
- emission maximum (in Cc1ccccc1): 399 nm
- emission maximum (in ClC(Cl)Cl): 397 nm

SMILES: F[B-]1(F)n2c(cc3oc4ccccc4c32)C(c2ccc(I)cc2)=C2C=c3oc4ccccc4c3=[N+]21
- emission maximum (in ClC(Cl)Cl): 647 nm

SMILES: c1ccc(C2CSC(c3c4ccc(=[N+]5CCCCC5)cc-4oc4cc(N5CCCCC5)ccc34)SC2)cc1 (stereo not drawn)
- emission maximum (in CO): 606.35 nm

SMILES: Cn1c(-c2ccc(-c3nc(-c4ccccc4)c(-c4ccccc4)n3C)s2)nc(-c2ccccc2)c1-c1ccccc1
- emission maximum (in CC#N): 470 nm

SMILES: CCCCCCCCCCOc1cc(OCCCCCCCCCC)cc(C2=C3C(C)=CC(/C=C/c4ccc(OC)cc4)=[N+]3[B-](F)(F)n3c(/C=C/c4ccc(OC)cc4)cc(C=Cc4ccc(OC)cc4)c32)c1
- emission maximum (in ClC(Cl)Cl): 682 nm

SMILES: COc1ccc(N2c3sc4ccccc4c3Sc3sc4ccccc4c32)cc1
- emission maximum (in ClCCl): 562 nm

SMILES: CN(C)c1ccc(C(=Cc2ccc(/C=C/c3ccc(C#N)cc3)cc2)c2ccc(N(C)C)cc2)cc1
- emission maximum (in C1CCOC1): 481 nm
